Reference: patent US20260285850A1, “SUBSTITUTED OXAZOLIDINONES AND IMIDAZOLINONES AS HERBICIDES” (FMC CORPORATION, priority 2023, published 2026)

Assays:
Assay type in all cases: in vivo
[1] = tested on: palmer (palmer amaranth, palmer pigweed, Amaranthus palmeri); test: Test A preemergence soil spray, visual injury rating 0-100; settings: 10 days, 0 = no effect, 100 = complete control
In short: (§1)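 Visual injury, scored 0-100 (100 = complete control) against untreated plants, 10 days after greenhouse treatment. Test chemicals in surfactant-containing non-phytotoxic solvent were applied in loam soil and sand, as a preemergence soil spray on seeds or postemergence to plants at the one- to two-leaf stage.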

soybean (Glycine max) [2] = test: as above; settings: 10 days, 0 = no effect, 100 = complete control
In short: as §1

[3] = tested on: ryegrass, Italian (italian ryegrass, Lolium multiflorum); test: as above; settings: 10 days, 0 = no effect, 100 = complete control
In short: as §1

kochia (Bassia scoparia) [4] = test: as above; settings: 10 days, 0 = no effect, 100 = complete control
In short: as §1

[5] = tested on: blackgrass (Alopecurus myosuroides); test: as above; settings: 10 days, 0 = no effect, 100 = complete control
In short: as §1

[6] = tested on: barnyardgrass (Echinochloa crus-galli); test: as above; settings: 10 days, 0 = no effect, 100 = complete control
In short: as §1

[7] = tested on: green foxtail (Setaria viridis); test: as above; settings: 10 days, 0 = no effect, 100 = complete control
In short: as §1

[8] = tested on: wheat (Triticum aestivum); test: as above; settings: 10 days, 0 = no effect, 100 = complete control
In short: as §1

[9] = tested on: ragweed (common ragweed, Ambrosia artemisiifolia); test: as above; settings: 10 days, 0 = no effect, 100 = complete control
In short: as §1

[10] = tested on: oat, wild (wild oat, Avena fatua); test: as above; settings: 10 days, 0 = no effect, 100 = complete control
In short: as §1

corn (Zea mays) [11] = test: as above; settings: 10 days, 0 = no effect, 100 = complete control
In short: as §1

[12] = tested on: palmer (palmer amaranth, palmer pigweed, Amaranthus palmeri); test: Test A postemergence application, visual injury rating 0-100; settings: 10 days
In short: as §1

soybean (Glycine max) [13] = test: as above; settings: 10 days
In short: as §1

[14] = tested on: ryegrass, Italian (italian ryegrass, Lolium multiflorum); test: as above; settings: 10 days
In short: as §1

kochia (Bassia scoparia) [15] = test: as above; settings: 10 days
In short: as §1

[16] = tested on: blackgrass (Alopecurus myosuroides); test: as above; settings: 10 days
In short: as §1

[17] = tested on: galium (catchweed bedstraw, Galium aparine); test: as above; settings: 10 days
In short: as §1

[18] = tested on: barnyardgrass (Echinochloa crus-galli); test: as above; settings: 10 days
In short: as §1

[19] = tested on: green foxtail (Setaria viridis); test: as above; settings: 10 days
In short: as §1

[20] = tested on: wheat (Triticum aestivum); test: as above; settings: 10 days
In short: as §1

[21] = tested on: ragweed (common ragweed, Ambrosia artemisiifolia); test: as above; settings: 10 days
In short: as §1

[22] = tested on: oat, wild (wild oat, Avena fatua); test: as above; settings: 10 days
In short: as §1

corn (Zea mays) [23] = test: as above; settings: 10 days
In short: as §1

[24] = tested on: horseweed (Erigeron canadensis); test: as above; settings: 10 days
In short: as §1

[25] = tested on: ducksalad (Heteranthera limosa); test: Test B flooded paddy test, visual plant response rating 0-100; settings: 250 g ai/ha, Flood, applied to paddy water, evaluated after 13 days
In short: (§2)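 Visual evaluation after 13 days. Water-applied treatment, 3 cm flood depth held constant, plants at 2-leaf stage at treatment.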

[26] = tested on: sedge, umbrella (small-flower umbrella sedge, Cyperus difformis); test: as above; settings: 250 g ai/ha, Flood, applied to paddy water, evaluated after 13 days
In short: as §2

rice (Oryza sativa) = test: as above; settings: 250 g ai/ha, Flood, applied to paddy water, evaluated after 13 days
In short: as §2

[27] = tested on: barnyardgrass (Echinochloa crusgalli); test: as above; settings: 250 g ai/ha, Flood, applied to paddy water, evaluated after 13 days
In short: as §2

[28] = 31 g ai/ha, postemergence, 0 = no effect, 100 = complete control
[29] = Postemergence, 125 g ai/ha, 0 is no effect, 100 is complete control

## CCOC(=O)COC(=O)C1C=CC(NC(=O)C2(C)CN(c3cc(F)cc(F)c3)C(=O)O2)C1 (stereo not shown) [Compound 53]
[1]; 31 g ai/ha
  Amaranth, Palmer plant response rating (0-100): 30
[1]; 125 g ai/ha
  Amaranth, Palmer plant response rating (0 to 100 scale): 60
Soybean (Glycine max) [2]; 31 g ai/ha
  Soybean plant response rating (0-100): 30
Soybean (Glycine max) [2]; 125 g ai/ha
  Soybean plant response rating (0 to 100 scale): 70
[3]; 31 g ai/ha
  Ryegrass, Italian plant response rating (0-100): 70
[3]; 125 g ai/ha
  Ryegrass, Italian plant response rating (0 to 100 scale): 100
Kochia (Bassia scoparia) [4]; 31 g ai/ha
  Kochia plant response rating (0-100): 0
Kochia (Bassia scoparia) [4]; 125 g ai/ha
  Kochia plant response rating (0 to 100 scale): 90
[5]; 31 g ai/ha
  Blackgrass plant response rating (0-100): 50
[5]; 125 g ai/ha
  Blackgrass plant response rating (0 to 100 scale): 90
[6]; 31 g ai/ha
  Barnyardgrass plant response rating (0-100): 30
[6]; 125 g ai/ha
  Barnyardgrass plant response rating (0 to 100 scale): 100
[7]; 31 g ai/ha
  Foxtail, Green plant response rating (0-100): 0
[7]; 125 g ai/ha
  Foxtail, Green plant response rating (0 to 100 scale): 20
[8]; 31 g ai/ha
  Wheat plant response rating (0-100): 70
[8]; 125 g ai/ha
  Wheat plant response rating (0 to 100 scale): 90
[9]; 31 g ai/ha
  Ragweed plant response rating (0-100): 0
[9]; 125 g ai/ha
  Ragweed plant response rating (0 to 100 scale): 20
[10]; 31 g ai/ha
  Oat, Wild plant response rating (0-100): 50
[10]; 125 g ai/ha
  Oat, Wild plant response rating (0 to 100 scale): 90
Corn (Zea mays) [11]; 31 g ai/ha
  Corn plant response rating (0-100): 0
Corn (Zea mays) [11]; 125 g ai/ha
  Corn plant response rating (0 to 100 scale): 60
[12]; [28]
  Amaranth, Palmer plant response rating (0-100): 70
[12]; [29]
  Amaranth, Palmer / Pigweed, Palmer plant response rating (0 to 100 scale): 90
Soybean (Glycine max) [13]; [28]
  Soybean plant response rating (0-100): 70
Soybean (Glycine max) [13]; [29]
  Soybean plant response rating (0 to 100 scale): 70
[14]; [28]
  Ryegrass, Italian plant response rating (0-100): 90
[14]; [29]
  Ryegrass, Italian plant response rating (0 to 100 scale): 90
Kochia (Bassia scoparia) [15]; [28]
  Kochia plant response rating (0-100): 80
Kochia (Bassia scoparia) [15]; [29]
  Kochia plant response rating (0 to 100 scale): 80
[16]; [28]
  Blackgrass plant response rating (0-100): 70
[16]; [29]
  Blackgrass plant response rating (0 to 100 scale): 80
[17]; [28]
  Galium plant response rating (0-100): 80
[17]; [29]
  Galium plant response rating (0 to 100 scale): 80
[18]; [28]
  Barnyardgrass plant response rating (0-100): 100
[18]; [29]
  Barnyardgrass plant response rating (0 to 100 scale): 100
[19]; [28]
  Foxtail, Green plant response rating (0-100): 50
[19]; [29]
  Foxtail, Green plant response rating (0 to 100 scale): 70
[20]; [28]
  Wheat plant response rating (0-100): 90
[20]; [29]
  Wheat plant response rating (0 to 100 scale): 90
[21]; [28]
  Ragweed plant response rating (0-100): 50
[21]; [29]
  Ragweed plant response rating (0 to 100 scale): 80
[22]; [28]
  Oat, Wild plant response rating (0-100): 90
[22]; [29]
  Oat, Wild plant response rating (0 to 100 scale): 90
Corn (Zea mays) [23]; [28]
  Corn plant response rating (0-100): 100
Corn (Zea mays) [23]; [29]
  Corn plant response rating (0 to 100 scale): 100
[24]; [28]
  Horseweed plant response rating (0-100): 60
[24]; [29]
  Horseweed plant response rating (0 to 100 scale): 70
[25]
  Plant response rating, Ducksalad (0 to 100 scale, 0 is no effect and 100 is complete control): 90
[26]
  Plant response rating, Sedge, Umbrella (0 to 100 scale, 0 is no effect and 100 is complete control): 60
Rice (Oryza sativa)
  Plant response rating, Rice (0 to 100 scale, 0 is no effect and 100 is complete control): 20
[27]
  Plant response rating, Barnyardgrass (0 to 100 scale, 0 is no effect and 100 is complete control): 90
